Measurements from patent US20130190345A1, “MATRINIC ACID/MATRINE DERIVATIVES AND PREPARATION METHODS AND USES THEREOF” (priority 2010, published 2013).
In brackets after ≈: the same amount, converted by molar mass.

Legend:
Format in all cases: cell-based
HCV = test: Inhibition effects of compounds on HCV in Huh7.5 cultured cell after HCV infection; conditions: for EC50 (half effective concentration): virus not given, stands beside HCV inhibition rate
Description: 1×10^5/ml Huh7.5 cells (purchased from Vertex Pharmaceutical Co., USA) were inoculated in an amount of 0.1 ml on 96-well culture plate, placed in an incubator with 37° C., 5% CO2 content and saturation humidity, and cultured for 24 h, HCV virus in 45 IU/cell was used to infect Huh7.5, different drug solutions (DM122) formulated with culture medium were added, and cell control and HCV infection control were set. Cultivation was continuously performed in the incubator with 37° C., 5% CO2 content and saturation humidity for 72 h, kit for RNA extraction was used to extract intracellular RNA, one-step qRT-PCR was used to determine intracellular contents of HCV and GAPDH RNA, and the inhibition effects of drug on HCV infection was analyzed. […] In comparison with the virus control group, the inhibition effects on HCV infection upon action of different drugs were analyzed. […] This experiment was repeated for 3 times, * indicated […] in comparison with control, ** indicated p<0.01 in comparison with control.

2.2.15 cells = test: Drug TC50 by MTT detection; conditions: Reed-Muench
Description: 2.2.15 cells (all cells were purchased from Vertex Pharmaceutical Co., USA) in exponential growth phase were inoculated on 96-well culture plate, 2×10^5 cells/well, added with culture media containing PFA diluted in different concentration rates, 3 wells for each diluted concentration, placed in 37° C. CO2—containing incubator and cultivated for 48 h; the supernatant was discarded, 100 μl of MTT (0.5 mg/ml) in culture medium was added, cultivation was continuously performed at 37° C. for 4 h; each well was added to 100 μl of 50% DMF-20% SDS destaining solution, stood at 37° C. overnight; ELISA was used to measure optical density at wavelength of 570 nm (0D570).
In each experiment, 3 cell control wells and 3 blank controls well were set, the results were used in formula, (cell control OD570-drug-medicated cell OD570)/cell control OD570, to calculate cell death rate (%), and Reed-Muench method was used to calculate half toxic concentration TC50.

Hsc70 [1] = test: Detection of Hsc70 gene expression level upon action of compound on 2.2.15 cells (real-time fluorescent quantified PCR); set-up: Hsc70 mRNA / Hsc70 down-regulation rate (%): unit not given here; conditions: for Hsc70 inhibition rate (down-regulation of Hsc70 expression activity, expressed in relative OMT ratio): 2.2.15 cells, relative to OMT (= 1); for Hsc70 down-regulation rate (%): single value, concentration not given, values coincide with Table 1 relative OMT ratios
Description: 2.2.15 cells (purchased from Vertex Pharmaceutical Co., USA) in a number of 1×10^6 were inocubated to 6-well plate, cultured in a culture medium containing 10% fetal calf serum for 24 hr, the original culture medium was discarded, replaced with a culutre medium containing 400 μg/ml OMTR, which was used as control. Compounds were firstly dissolved in MEM to form 20 mg/ml mother liquid, which was diluted with culture medium when used and then applied to cells. The compounds of Examples 1-114 were separately used for treatment for 12, 24, 36 hr, then cells were harvested for extraction of RNA and DNA, then the changes of Hsc70 mRNA and HBV DNA were detected by real-time fluorescent quantified PCR.

Hsc70 [2] = test: Inhibition effects of compound on Hsc70 in Huh7.5 cultured cell (qRT-PCR, Western blotting); set-up: key to Hsc70 down-regulation rate (%): “—” represents no significant inhibition rate
Description: 2×10^5/ml Huh7.5 cells (purchased from Vertex Pharmaceutical Co., USA) were inoculated in an amount of 3 ml on 6-well culture plate, placed in an incubator with 37° C., 5% CO2 content, saturation humidity, and cultured for 24 h, added with different drug solutions (DM122) formulated with culture medium, and cell control was set. Cultivation was continuously performed in the incubator with 37° C., 5% CO2 content, saturation humidity for 24 h, a kit for RNA extraction was used to extract intracellular RNA from the cells, and one-step qRT-PCR was used to determine intracellular contents of Hsc70 and GAPDHRNA. After the cultivation of cells was performed for 48 h, the cells were digested and harvested, then the cells were split with CytoBuster™ Protein Extraction Buffer that contained many kinds of protease inhibitors, total intracellular proteins were extracted, and Western blotting was used to analyze the contents of Hsc70 and GAPDH proteins. In comparison with the cell control, the inhibition effects on Hsc70 upon action of different drugs were analyzed.

Molecule | EC50 (half effective concentration) (HCV) [µg/mL] | CC50 (concentration to cause poisoning in half cells) (2.2.15 cells) [µg/mL] | Hsc70 inhibition rate (down-regulation of Hsc70 expression activity, expressed in relative OMT ratio) (Hsc70 [1]) | Hsc70 down-regulation rate (%) (Hsc70 [1]) | HCV inhibition rate (%) (HCV; 200 ug/ml (upper data)) | HCV inhibition rate (%) (HCV; 400 ug/ml (lower data)) | Hsc70 down-regulation rate (%) (Hsc70 [2]; 200 ug/ml (upper data)) | Hsc70 down-regulation rate (%) (Hsc70 [2]; 400 ug/ml (lower data))
O=C(O)CCCC1C2CCCN3CCCC(CN1Cc1ccc(Cl)cc1)C23 (stereo not shown) [DM-126, N-(4-chlorobenzyl) matrinic acid] | 21.11 (≈ 54 µM) | >1000 | 0.62 | 0.62 |  |  |  | 
O=C(O)CCCC1C2CCCN3CCCC(CN1Cc1cccc(Cl)c1Cl)C23 (stereo not shown) [DM-129, N-(2,3-dichlorobenzyl) matrinic acid] | 192.02 (≈ 451 µM) | 245.5 (≈ 577 µM) | 0.27 | 0.27 |  |  |  | 
O=C(O)CCCC1C2CCCN3CCCC(CN1Cc1cccnc1)C23 (stereo not shown) [DM-144, N-(pyridin-3-yl) methyl matrinic acid] | 31.8 (≈ 89 µM) | >1000 |  |  |  |  |  | 
O=C(O)CCCC1C2CCCN3CCCC(CN1C(=O)c1ccc(F)cc1)C23 (stereo not shown) [DM-154, N-(4-fluorobenzoyl) matrinic acid] | >333.33 | >1000 |  |  |  |  |  | 
N#Cc1ccc(CN2C[C@@H]3CCCN4CCC[C@@H]([C@H]34)[C@H]2CCCC(=O)O)cc1 [DM-134, N-(4-cyanobenzyl) matrinic acid] | 52.18 (≈ 137 µM) | >1000 | 0.57 | 0.57 |  |  |  | 
N#Cc1ccc(C(=O)N2CC3CCCN4CCCC(C34)C2CCCC(=O)O)cc1 (stereo not shown) [DM-152, N-(4-cyanobenzoyl) matrinic acid] | 125.65 (≈ 318 µM) | >1000 |  |  |  |  |  | 
O=C(O)CCCC1C2CCCN3CCCC(CN1Cc1ccc(Br)cc1)C23 (stereo not shown) [DM-128, N-(4-bromobenzyl) matrinic acid] | 51.66 (≈ 119 µM) | 535.1 (≈ 1230 µM) | −5.78 | −5.78 |  |  |  | 
N-(4-ethenyl benzyl) matrinic acid [DM-136] | 1.80 | 70.49 | 0.76 | 0.76 |  |  |  | 
N#Cc1cccc(S(=O)(=O)N2CC3CCCN4CCCC(C34)C2CC=CC(=O)O)c1 (stereo not shown) [SC-89b, N-(m-cyanobenzenesulfonyl) sophocarpinic acid] | 3.98 (≈ 9.27 µM) | 123.08 (≈ 287 µM) |  |  |  |  |  | 
COc1ccc(C(=O)N2CC3CCCN4CCCC(C34)C2CCCC(=O)O)cc1 (stereo not shown) [DM-151, N-(4-methoxybenzoyl) matrinic acid] |  |  |  |  | 20.5 ± 3.2 | 53.4 ± 5.6 | — | 11.5 ± 2.4%
Cc1ccc([N+](=O)[O-])cc1C(=O)N1C[C@@H]2CCCN3CCC[C@@H]([C@H]23)[C@H]1CCCC(=O)O [DM-131, N-(2-methyl-5-nitrobenzoyl) matrinic acid] | 89.31 (≈ 208 µM) | >1000 | −0.86 | −0.86 |  |  |  | 
O=C(O)C=CCC1C2CCCN3CCCC(CN1S(=O)(=O)c1ccc(C(F)(F)F)cc1)C23 (stereo not shown) [SC-84a, N-(p-trifluoromethylbenzene sulfonyl) sophocarpinic acid] | 7.54 (≈ 16 µM) | 530.07 (≈ 1120 µM) |  |  |  |  |  | 
Cc1ccc(C(=O)N2C[C@@H]3CCCN4CCC[C@@H]([C@H]34)[C@H]2CCCC(=O)O)cc1 [DM-153, N-(4-methylbenzoyl) matrinic acid] |  |  |  |  | 47.8 ± 9.4 | 29.2 ± 29.5 | 38.6 ± 15.8% | 32.6 ± 14. %
O=C(O)CCCC1C2CCCN3CCCC(CN1Cc1ccccn1)C23 (stereo not shown) [DM-143, N-(pyridin-2-yl) methyl matrinic acid] | 12.46 (≈ 34.9 µM) | 374.5 (≈ 1050 µM) | 1.1 | 1.1 |  |  |  | 
Cc1ccc([N+](=O)[O-])cc1C(=O)N1C[C@H]2CCCN3CCC[C@@H]([C@H]23)[C@H]1CCCC(=O)O [Compound L2, (5R)—N-(2-methyl-5-nitrobenzoyl)matrinic acid] |  |  |  |  | 27.9 ± 16.3 | 5.3 ± 5.1 | 76.6 ± 2.5% | 32.7 ± 5.0%
O=C(O)CCC[C@@H]1[C@H]2CCCN3CCC[C@@H](CN1Cc1cscn1)[C@@H]23 [DM-146, N-(thiazol-4-yl)methyl matrinic acid] | 63.99 (≈ 176 µM) | >1000 | 0.92 | 0.92 |  |  |  | 
O=C(O)CCCC1C2CCCN3CCCC(CN1Cc1ccncc1)C23 (stereo not shown) [DM-145, N-(pyridin-4-yl)methyl matrinic acid] | 117.2 (≈ 328 µM) | >1000 |  |  |  |  |  | 
O=C(O)CCCC1C2CCCN3CCCC(CN1Cc1cccc4ccccc14)C23 (stereo not shown) [DM-148, N-(naphthyl-1-yl) methyl matrinic acid] | >333.3 | 529.86 (≈ 1300 µM) |  |  |  |  |  | 
O=C(O)CCC[C@@H]1[C@H]2CCCN3CCC[C@@H](CN1Cc1ccc(Cl)c(Cl)c1)[C@@H]23 [DM-127, N-(3,4-dichlorobenzyl) matrinic acid] | 113.64 (≈ 267 µM) | 427.8 (≈ 1010 µM) | −2.92 | −2.92 |  |  |  | 
O=C(O)CCCC1C2CCCN3CCCC(CN1C(=O)c1cccc([N+](=O)[O-])c1)C23 [Compound L9, (5R)—N-(3-nitrobenzoyl)matrinic acid] |  |  |  |  | 62.5 ± 0.3 | 68.9 ± 3.8 | 20.1 ± 11.1% | —
COc1ccc(C(=O)N2CC3CCCN4CCCC(C34)C2CCCC(=O)O)cc1 [Compound L11, (5R)—N-(p-methoxybenzoyl)matrinic acid] |  |  |  |  | 46.7 ± 12.7 | 61.6 ± 3.9 | 31.4 ± 12.2% | —
O=C(O)CCC[C@@H]1[C@H]2CCCN3CCC[C@@H](CN1C(=O)c1ccc(C(F)(F)F)cc1)[C@@H]23 [DM-155, N-(4-trifluoromethylbenzoyl) matrinic acid] | >333.33 | >1000 |  |  |  |  |  | 
O=C(O)CCC[C@@H]1[C@H]2CCCN3CCC[C@@H](CN1C(=O)c1cccc([N+](=O)[O-])c1)[C@@H]23 [DM-121, N-(3-nitrobenzoyl) matrinic acid] |  |  | 0.23 |  |  | 14.9 ± 9.0 | — | —
